{"source": "patent US20250186603A1", "about": "“ANTI-GD2 ANTIBODIES, IMMUNOCONJUGATES AND THERAPEUTIC USES THEREOF” (Merck Patent GmbH, priority 2022, published 2025)", "molecules": {"B1": {"name": "Dinutaximab beta (antibody, chains of the INN, looked up, V domains shown)", "VH": "EVQLLQSGPELEKPGASVMISCKASGSSFTGYNMNWVRQNIGKSLEWIGAIDPYYGGTSYNQKFKGRATLTVDKSSSTAYMHLKSLTSEDSAVYYCVSGMEYWGQGTSVTVSS", "VL": "EIVMTQSPATLSVSPGERATLSCRSSQSLVHRNGNTYLHWYLQKPGQSPKLLIHKVSNRFSGVPDRFSGSGSGTDFTLKISRVEAEDLGVYFCSQSTHVPPLTFGAGTKLELK"}}, "key": {"CTG-2264 tumors": {"tested_on": "CTG-2264 tumors", "assay": "Combination efficacy study of anti-GD2 ADC and ATR inhibitor in osteosarcoma PDX model CTG-2264", "format": "in vivo, athymic nude mice (nu/nu)", "details": "Day 23; Molecule 1 3.0 mg/kg single IV Day0; ATR inhibitor 10 mg/kg p.o. qd; combination of both", "description": "The antitumor activities of selected ADCs of the present invention were tested in the CTG-2264, osteosarcoma PDX model.\nVehicle control was saline and dosed (10 mL/kg) at Day0. The group size for each treatment group was 3. The calculation of the Tumor Growth Inhibition (TGI) was done for Day 23 after treatment start, when the mean tumor volume of the control group reached 1000 mm3 (see FIG. 11, 12)."}, "[1]": {"tested_on": "MDA-MB-468 (breast carcinoma) cells", "assay": "ADC cell killing assay (CellTiter Glo Luminescent Cell Viability assay) on MDA-MB-468", "format": "cell-based, human", "description": "(§1) The in vitro potency of the ADCs hu14.18-IgG1.4 (K322A)-delK-βGluc Exatecan and rituximab IgG1 βGluc Exatecan, the unconjugated antibody hu14.18-IgG1.4 (K322A)-delk and the free payload Exatecan was measured on antigen-positive human tumor cell lines CHP-134 (neuroblastoma, #ACC653, DSMZ, Braunschweig, Germany), NCI-H446 (small cell lung cancer (SCLC), #HTB-171, ATCC, Manassas, VA, USA) as well as M21 (melanoma, Scripps Research Institute, La Jolla, CA, USA) and antigen-negative human tumor cell line MDA-MB-468 (breast carcinoma, #ACC738, DSMZ, Braunschweig, Germany) using the CellTiter Glo® Luminescent Cell Viability assay (#G7573, Promega Corporation, Madison, WI, USA).\n(§2) The cell lines CHP-134, NCI-H446 and MDA-MB-468 were cultured as instructed by vendor and maintained in RPMI1640 medium with GlutaMAX™ supplement (#61870-010, Gibco™, purchased from Thermo Fisher Scientific, Waltham, MA, USA), 1 mM sodium pyruvate (#11360-070, Gibco™, Thermo Fisher Scientific) and 10% fetal bovine serum (FBS) (#S0615, Sigma Aldrich, St. Louis, MO, USA). The melanoma cell line M21 was cultured in DMEM with stable L-glutamine (#41965-039, Gibco™, Thermo Fisher Scientific) and 10% FBS. […]"}, "[2]": {"tested_on": "CHP-134 (neuroblastoma) cells", "assay": "ADC cell killing assay (CellTiter Glo Luminescent Cell Viability assay) on CHP-134", "format": "cell-based, human", "description": "as §1, §2"}, "[3]": {"tested_on": "NCI-H446 (small cell lung cancer) cells", "assay": "ADC cell killing assay (CellTiter Glo Luminescent Cell Viability assay) on NCI-H446", "format": "cell-based, human", "description": "as §1, §2"}, "M21 (melanoma) cells": {"tested_on": "M21 (melanoma) cells", "assay": "ADC cell killing assay (CellTiter Glo Luminescent Cell Viability assay) on M21", "format": "cell-based, human", "description": "as §1, §2"}, "[4]": {"details": "cited from earlier work"}}}
{"molecule": "Nc1nn2cc(F)cnc2c1C(=O)Nc1cncc(F)c1N1CCC(C(=O)N2CCN(C3COC3)CC2)CC1", "note": "[ATR inhibitor]", "values": [{"measurement": "tumor growth inhibition (TGI)", "setting": "CTG-2264 tumors", "result": 67, "unit": "%"}]}
{"molecule": "CC[C@@]1(O)C(=O)OCc2c1cc1n(c2=O)Cc2c-1nc1cc(F)c(C)c3c1c2[C@@H](N)CC3", "note": "[Exatecan, (1S,9S)-1-Amino-9-ethyl-5-fluoro-9-hydroxy-4-methyl-1,2,3,9,12,15-hexahydro-10H,13H-benzo[de]pyrano[3′,4′:6,7]indolizino[1,2-b]quinoline-10,13-dione]", "values": [{"measurement": "IC50", "setting": "[1]; Homo sapiens, MDA-MB-468, 144 h", "result": 0.3, "unit": "nM"}, {"measurement": "Span (%)", "setting": "[1]; MDA-MB-468, % efficacy at highest test concentration (100 nM for Molecule 1,2,4; 1 μM for Molecule 3), geomean", "result": 100, "unit": "%"}, {"measurement": "Span (%)", "setting": "[2]; CHP-134, % efficacy at highest test concentration (100 nM for Molecule 1,2,4; 1 μM for Molecule 3), geomean", "result": 100, "unit": "%"}, {"measurement": "IC50", "setting": "[2]; Homo sapiens, CHP-134, 144 h", "result": 0.2, "unit": "nM"}, {"measurement": "IC50", "setting": "[3]; Homo sapiens, NCI-H446, 144 h", "result": 0.07, "unit": "nM"}, {"measurement": "Span (%)", "setting": "[3]; NCI-H446, % efficacy at highest test concentration (100 nM for Molecule 1,2,4; 1 μM for Molecule 3), geomean", "result": 96, "unit": "%"}, {"measurement": "IC50", "setting": "M21 (melanoma) cells; Homo sapiens, M21, 144 h", "result": 1.1, "unit": "nM"}, {"measurement": "Span (%)", "setting": "M21 (melanoma) cells; M21, % efficacy at highest test concentration (100 nM for Molecule 1,2,4; 1 μM for Molecule 3), geomean", "result": 95, "unit": "%"}]}
{"molecule": "B1", "values": [{"measurement": "clinical signs", "setting": "[4]; cynomolgus monkeys, EMA/263814/2017", "result": "clinical signs that were interpreted as acute pain"}, {"measurement": "histopathology of peripheral nervous system", "setting": "[4]; infused 4 h/day for 10 consecutive days, 30 and 100 mg/m^2/day", "result": "histopathological changes were noted on day 15 in the peripheral nerves and visceral nervous innervation of organs"}]}
